The IC50 is the point on the concentration scale where inhibition reaches its midpoint. The Ki is the dissociation constant of the complex between target and ligand, obtained from inhibition or displacement.

Data on 4 molecules can be found in patent US8268848B2, “Cyclopropane compound” (Eisai R&D Management Co., Ltd., priority 2010, dated 2012).

SMILES strings stand for the structures. Where two headings read alike, the source gives them in different places.

One assay has as its system mice (C57BL/6NCrlCrLj). Nature of the assay: Sleep experiment (EEG/EMG) in mice. The class given is in vivo. As to conditions: mice; for Sleep extended time 10 mg/kg (min/3 hrs): oral administration, difference to vehicle day. The procedure:
As a method for measuring the influence of the present compound on sleep time, electroencephalogram (EEG) and electromyogram (EMG) measurements were carried out in mice (C57BL/6NCrlCrLj).
In order to measure brain waves and muscle signals, EEG and EMG electrode implantation was performed on individual mice, and the mice were then housed in a state in which they could freely move and habituate in individual recording cages for 1 week or longer. Thereafter, amplified EEG and EMG signals were digitally recorded.
Mice received either oral administration of vehicle or test compound in vehicle, after which sleep/wake behavior of mice was recorded for 3 hours.
For sleep analysis, automatic analysis software from Kissei Comtec Co., Ltd. was used to analyze EEG frequency and EMG activity signals in detail and to determine sleep and wake states. Thereafter, accumulated sleeping time over 3 hours was calculated.
The effect of the compound to increase sleep time was evaluated as the difference between sleeping time on the vehicle-administration day and the sleep time on the subsequent drug-administration day.
The minimum effective dose (MED; mg/kg) was obtained from accumulated sleep time of mice with three hours after the administration.

For assay [1], the target named is T1, OX1 (Homo sapiens, UniProt O43613).
T1 sequence (O43613 1-425): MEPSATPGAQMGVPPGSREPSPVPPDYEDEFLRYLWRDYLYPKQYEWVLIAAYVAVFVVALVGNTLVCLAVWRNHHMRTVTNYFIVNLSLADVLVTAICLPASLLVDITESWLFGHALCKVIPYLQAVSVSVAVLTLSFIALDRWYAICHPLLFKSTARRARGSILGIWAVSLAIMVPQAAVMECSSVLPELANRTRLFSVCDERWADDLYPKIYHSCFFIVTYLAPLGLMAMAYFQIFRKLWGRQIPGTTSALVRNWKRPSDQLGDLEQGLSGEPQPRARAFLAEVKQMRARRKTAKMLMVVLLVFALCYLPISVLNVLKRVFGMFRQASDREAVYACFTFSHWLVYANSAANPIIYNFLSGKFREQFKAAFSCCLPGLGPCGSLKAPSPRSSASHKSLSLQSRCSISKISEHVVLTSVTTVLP
Nature of the assay: Measurement of orexin receptor-binding ability ([125I]-OX-A, cell membranes, OX1). Also on record: expressed in transfected cells; host or cells: CHO cells (membrane preparation).

Assay [2] concerns the target T2, OX2 (Homo sapiens, UniProt O43614).
T2 sequence (O43614 1-444): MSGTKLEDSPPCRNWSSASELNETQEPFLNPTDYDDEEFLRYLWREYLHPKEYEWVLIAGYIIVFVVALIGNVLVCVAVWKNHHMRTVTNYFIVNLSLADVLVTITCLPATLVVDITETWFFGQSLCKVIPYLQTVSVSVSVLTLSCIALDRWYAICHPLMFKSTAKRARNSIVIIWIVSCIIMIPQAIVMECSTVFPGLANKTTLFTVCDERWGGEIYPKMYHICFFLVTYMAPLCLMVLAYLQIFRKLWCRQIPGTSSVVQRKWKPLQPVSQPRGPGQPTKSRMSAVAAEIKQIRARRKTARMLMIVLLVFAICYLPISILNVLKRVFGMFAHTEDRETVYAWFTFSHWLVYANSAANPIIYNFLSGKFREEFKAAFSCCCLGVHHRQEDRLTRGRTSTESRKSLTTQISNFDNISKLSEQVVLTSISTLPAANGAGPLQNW
Nature of the assay: Measurement of orexin receptor-binding ability ([125I]-OX-A, cell membranes, OX2). On the set-up: expressed in transfected cells; host or cells: CHO cells (membrane preparation). The settings on record: OX2 (IC50) nM, membranes of recombinant CHO cells expressing OX2, 0.2 nM [125I]-OX-A.

The target in assay [3] is T1, OX1. The experiment in a line: Measurement of antagonism (PLAP assay), OX1. The class given is cell-based. On the set-up: expressed in transfected cells; host or cells: HEK-293 cells, expression vector pBabeCLIH. Here is the method:
(§1) 2. Measurement of Antagonism (PLAP Assay)
(§2) The antagonistic function of the compound of the present invention to prevent the activation of OX2 and OX1 by orexin-A (OX-A), which is a natural peptide agonist, was measured using a cell-based reporter assay. […] The cells were plated at a density of 10,000 cells/well onto a non-coated 96-well plate in Dulbecco's modified Eagle medium (Sigma Cat No. D6046:10% v/v heat-inactivated fetal bovine serum was contained). The cells were cultured at 37° C. overnight, so that they could adhere to the plate. On the following day, cells were incubated with a compound of the present invention dissolved in Dulbecco's modified Eagle medium (Sigma Cat No. A8806:0.1% w/v bovine serum albumin was contained), and added to the cell plate to reach a final concentration of 0.1% dimethyl sulfoxide.
(§3) The thus obtained mixture was incubated at room temperature for 1 hour. Thereafter, human OX-A and forskolin were dissolved in the same medium as described above, which contained fetal bovine serum albumin, and the medium was then added to the cells, resulting in a final concentration of 300 nM forskolin. Subsequently, the cells were cultured at 37° C. for approximately 18 to 24 hours.

In assay [4] the target is T2, OX2. The experiment in a line: Measurement of antagonism (PLAP assay), OX2. It counts as cell-based. Also on record: expressed in transfected cells; host or cells: HEK-293 cells, expression vector pBabeCLIH. The procedure:
as §1, §2, §3

Another assay has as its system rats. The settings on record: cited from earlier work.
The subject of a further assay is normal humans. The settings on record: cited from earlier work.
Another assay has as its system patients with insomnia. The settings on record: cited from earlier work.

For the molecule `COc1cccc([C@]2(COc3cnc(C)nc3C)C[C@H]2C(=O)Nc2ccc(F)cn2)c1` [Example 186, (1R,2S)-2-{[(2,4-dimethylpyrimidin-5-yl)oxy]methyl}-N-(5-fluoropyridin-2-yl)-2-(3-methoxyphenyl)cyclopropanecarboxamide], the “Sleep extended time 10 mg/kg (min/3 hrs)” value in the assay on mice (C57BL/6NCrlCrLj) is reported as 14.7 min/3 hrs. The IC50 at OX1 [1] is 22 nM; at OX2 [2], 7 nM. For the same molecule, the Ki came out at 87 nM at OX1 [3] (HEK-293 cells expressing human OX1, 1 nM human OX-A, IC50 converted by Cheng-Prusoff equation, read-out: OX1 (Ki)) and 3.4 nM on OX2 [4] (HEK-293 cells expressing human OX2, 1 nM human OX-A, IC50 converted by Cheng-Prusoff equation, read-out: OX2 (Ki)).
Take `CCc1nc(C)ncc1OC[C@@]1(c2cccc(F)c2)C[C@H]1C(=O)Nc1ccccn1` [Example 240, (1R,2S)-2-{[(4-ethyl-2-methylpyrimidin-5-yl)oxy]methyl}-2-(3-fluorophenyl)-N-(pyridin-2-yl)cyclopropanecarboxamide]: in the assay with mice (C57BL/6NCrlCrLj), the “Sleep extended time 10 mg/kg (min/3 hrs)” value came out at 7.7 min/3 hrs. In the assay on mice (C57BL/6NCrlCrLj) (oral, doses 0.3 to 100 mg/kg, accumulated sleep time within three hours after administration), the “minimum effective dose (MED)” value is listed as 10 mg/kg. The IC50 was found to be 8.7 nM on OX1 [1] and 2.9 nM on OX2 [2]. Besides, the values for the Ki at OX1 [3] and on OX2 [4] were 18 nM and 0.91 nM, respectively.
Regarding `Cc1ncc(OC[C@@]2(c3ccccc3F)C[C@H]2C(=O)Nc2ccc(F)cn2)c(C)n1` [Example 263], the “Sleep extended time 10 mg/kg (min/3 hrs)” value with mice (C57BL/6NCrlCrLj) was found to be 27.3 min/3 hrs. The IC50 at OX1 [1] was determined as 82 nM; at OX2 [2], 17 nM. Moreover, the results for the Ki on OX1 [3] and at OX2 [4] were 193 nM and 8.6 nM, respectively.
Consider `CNC(=O)[C@@H](c1ccccc1)N1CCc2cc(OC)c(OC)cc2[C@@H]1CCc1ccc(C(F)(F)F)cc1` [almorexant, (2R)-2-{(1S)-6,7-dimethoxy-1-[2-(4-trifluoromethyl-phenyl)ethyl]-3,4-dihydro-1H-isoquinolin-2-yl}-N-methyl-2-phenylacetamide], for which, in the assay with rats, the “REM sleep time and non-REM sleep time” value is “dose-dependently increases both rapid eye movement (REM) sleep time and non-REM sleep time”; the wakefulness entry was “causes a decrease in wakefulness in rats”. The “sleep latency, sleep efficacy, total sleep time” value with normal humans was “exhibits dose-dependently a reduction of sleep latency, sleep efficacy and extension of total sleep time”. Also, the “sleep efficacy, sleep latency, REM sleep” value in the assay on patients with insomnia is “exhibits improvement of sleep efficacy, shortness of sleep latency, increase of REM sleep and improvement of REM sleep ratio”.
